# Results as given in patent US7468391B2, “Methods for treating retinoid responsive disorders using selective inhibitors of CYP26A and CYP26B” (Allergan, Inc., priority 2003, dated 2008).
# Legend:
# [1] = molecular target: T1, CYP26A (P450RAI-1) (Homo sapiens, UniProt O43174); experiment: Cell-based inhibition of RA metabolism in CYP26A stably transfected HeLa cells; settings: for IC50: Table 3, stably transfected HeLa cells, [3H]-RA, 3 hours at 37° C., read-out: CYP26A Intact cells IC50
# T1 construct: expressed in transfected cells; host or cells: HeLa
# T1 sequence (O43174 1-497): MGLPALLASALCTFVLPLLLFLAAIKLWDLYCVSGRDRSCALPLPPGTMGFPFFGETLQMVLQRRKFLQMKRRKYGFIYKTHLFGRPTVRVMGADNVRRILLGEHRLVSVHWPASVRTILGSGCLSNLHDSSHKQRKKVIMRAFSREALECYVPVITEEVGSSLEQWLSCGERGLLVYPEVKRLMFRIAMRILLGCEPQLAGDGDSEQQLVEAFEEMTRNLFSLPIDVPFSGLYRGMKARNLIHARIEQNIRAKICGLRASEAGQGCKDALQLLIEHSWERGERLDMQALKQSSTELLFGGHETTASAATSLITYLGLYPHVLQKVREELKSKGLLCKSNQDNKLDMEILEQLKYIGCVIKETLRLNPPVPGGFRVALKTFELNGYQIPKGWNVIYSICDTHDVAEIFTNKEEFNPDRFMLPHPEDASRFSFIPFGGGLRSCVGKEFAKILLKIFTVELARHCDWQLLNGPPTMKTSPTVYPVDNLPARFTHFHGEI
# How it was run: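 Stably transfected HeLa cells (5×10^5/well) in MEM with 10% FBS and 0.05 μCi [3H]-RA, compounds at 10, 1 or 0.1 μM final, 3 h at 37° C. Retinoids extracted by modified Bligh-Dyer (methylene chloride); aqueous radioactivity counted; ID50 for 50% inhibition of RA metabolism derived from log-transformed data.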
# [2] = molecular target: T2, RAR β (Homo sapiens, UniProt P10826); experiment: RAR β EC50/(efficacy); assay type: cell-based; settings: Table 3
# T2 sequence (P10826 1-455): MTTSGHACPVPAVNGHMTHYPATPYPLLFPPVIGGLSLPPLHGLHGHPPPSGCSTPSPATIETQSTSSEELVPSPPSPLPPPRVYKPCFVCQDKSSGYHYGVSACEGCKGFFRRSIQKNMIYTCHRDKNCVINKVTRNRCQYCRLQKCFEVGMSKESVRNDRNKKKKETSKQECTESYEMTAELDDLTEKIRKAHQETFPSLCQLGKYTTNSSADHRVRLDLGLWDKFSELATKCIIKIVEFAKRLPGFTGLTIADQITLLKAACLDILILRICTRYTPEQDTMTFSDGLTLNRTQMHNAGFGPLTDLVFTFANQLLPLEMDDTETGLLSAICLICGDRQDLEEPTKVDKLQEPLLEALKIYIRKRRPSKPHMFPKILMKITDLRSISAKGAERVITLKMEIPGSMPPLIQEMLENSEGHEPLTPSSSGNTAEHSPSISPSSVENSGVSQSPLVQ
# [3] = molecular target: T3, RAR α (Homo sapiens, UniProt P10276); experiment: RAR α Kd; assay type: binding; settings: Table 3
# T3 sequence (P10276 1-462): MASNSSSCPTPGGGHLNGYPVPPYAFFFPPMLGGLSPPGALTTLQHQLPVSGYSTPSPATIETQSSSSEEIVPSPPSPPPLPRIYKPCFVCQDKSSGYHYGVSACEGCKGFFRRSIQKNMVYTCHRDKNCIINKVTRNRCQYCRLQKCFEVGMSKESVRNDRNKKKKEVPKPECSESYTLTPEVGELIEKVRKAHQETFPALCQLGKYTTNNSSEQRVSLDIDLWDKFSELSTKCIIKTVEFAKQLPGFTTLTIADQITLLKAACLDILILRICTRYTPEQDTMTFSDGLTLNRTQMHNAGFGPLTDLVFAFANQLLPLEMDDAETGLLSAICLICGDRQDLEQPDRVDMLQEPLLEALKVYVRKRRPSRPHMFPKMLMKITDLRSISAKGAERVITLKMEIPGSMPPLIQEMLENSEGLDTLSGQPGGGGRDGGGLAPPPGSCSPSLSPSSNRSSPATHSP
# [4] = molecular target: T2, RAR β; experiment: RAR β Kd; assay type: binding; settings: Table 3
# [5] = molecular target: T4, RAR γ (Homo sapiens, UniProt P13631); experiment: RAR γ Kd; assay type: binding; settings: Table 3
# T4 sequence (P13631 1-454): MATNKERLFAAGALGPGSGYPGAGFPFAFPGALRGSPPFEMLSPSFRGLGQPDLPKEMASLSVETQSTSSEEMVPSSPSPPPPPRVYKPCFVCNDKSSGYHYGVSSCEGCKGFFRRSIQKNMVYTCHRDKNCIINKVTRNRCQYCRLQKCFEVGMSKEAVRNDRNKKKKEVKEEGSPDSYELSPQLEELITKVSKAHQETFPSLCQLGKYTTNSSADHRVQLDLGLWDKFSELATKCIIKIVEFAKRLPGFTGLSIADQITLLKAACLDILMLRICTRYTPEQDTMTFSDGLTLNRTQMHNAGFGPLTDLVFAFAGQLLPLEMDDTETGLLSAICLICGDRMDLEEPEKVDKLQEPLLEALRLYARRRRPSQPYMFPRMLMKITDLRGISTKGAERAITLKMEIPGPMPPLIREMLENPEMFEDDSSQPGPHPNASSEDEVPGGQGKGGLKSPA
IC50 [1] [µM],selectivity for CYP26A relative to CYP26B ([1]; ratio of ID50 values),RAR β (EFFICACY) [2],Kd [3] [µM],Kd [4] [µM],Kd [5] [µM],SMILES
0.6,at least 10 fold,< 5,> 10,> 10,> 10,CN(C1CC1)C1CCC(C)(C)c2cc(C#Cc3ccc(C(C)(C)C(=O)O)cc3)ccc21 (centres unmarked) [AGN 198790]
> 10,,25,> 10,> 10,> 10,CN(Cc1cccc(C#Cc2ccc(/C=C/C(=O)O)cc2)c1)C1CC1 [AGN 199713]
